Results published in PubChem BioAssay AID1996.
Converted amounts (≈) assume the structure as drawn.

details: buffer; pH 7.4; 200.0 µM

| Compound | solubility kinetic |
| --- | --- |
| CCN(C(=O)c1ccc2c(c1)OCO2)C1CCS(=O)(=O)C1 (stereo not given) | > 46.7 µg/mL |
| O=C(Nc1ccnc(-c2ccncc2)n1)c1ccc(F)cc1 | 0.4 µg/mL (≈ 1.36 µM) |
| Cc1ccccc1CC(=O)NCc1cccnc1 | > 36 µg/mL |
| CN(c1ccc(F)cc1)S(=O)(=O)c1ccc(Cl)c(C(=O)OCC(=O)NC2CC2)c1 | 11.7 µg/mL (≈ 26.5 µM) |
| O=C(Nc1cccc(O)c1)C1CC(c2c(F)cccc2Cl)=NO1 (stereo not given) | 29.5 µg/mL (≈ 88.1 µM) |
| Clc1ccc2c(N3CCOCC3)ccnc2c1 | > 37.3 µg/mL |
| CCNC(=O)N1CCN(C(=O)NCC)CC1 | 13.6 µg/mL (≈ 59.6 µM) |
| C=Cc1ccc(Cn2c(=O)n(C)c(=O)c3sccc32)cc1 | 1 µg/mL (≈ 3.35 µM) |
| Cc1cc(=O)[nH]c(Nc2cccc(Cl)c2C)n1 | > 37.5 µg/mL |
| Cc1ccnc(SCC(=O)c2cc3ccccc3o2)n1 | 1.3 µg/mL (≈ 4.57 µM) |
| O=C1CCc2cc(S(=O)(=O)Nc3ccc(F)cc3)ccc2N1 | > 48.1 µg/mL |
| CC(C)C(=O)Nc1ccccc1Cc1ccccc1 | 10.7 µg/mL (≈ 42.2 µM) |
| CC(C)(C)N(Cc1ccccc1)C(=O)COC(=O)c1ccc(S(=O)(=O)N2CCOCC2)cc1 | 18.4 µg/mL (≈ 38.8 µM) |
| Cc1ccc(C)c(NC(=O)N2CCCCCC2)c1 | > 37 µg/mL |
| Cc1ccc(S(=O)(=O)NCc2cn3ccccc3n2)c(C)c1 | 8.9 µg/mL (≈ 28.2 µM) |
| Cc1cc(C)c(C)c(S(=O)(=O)NCC(=O)Nc2ccc(F)cc2)c1C | 3.9 µg/mL (≈ 10.7 µM) |
| Cc1cc(N2CCN(C(=O)c3cccs3)CC2)c(F)cc1[N+](=O)[O-] | 1.5 µg/mL (≈ 4.29 µM) |
| CC1=CC(=O)C(C(C)C)=C/C1=N/OS(=O)(=O)c1ccccc1 | 7.9 µg/mL (≈ 24.7 µM) |
| Cc1ccc2nc(-c3ccc(N)cc3)sc2c1 | 1.1 µg/mL (≈ 4.58 µM) |
| CCc1ccccc1OCC(=O)Nc1ccc2c(c1)OCCO2 | 15.9 µg/mL (≈ 50.7 µM) |

| Compound | solubility kinetic |
| --- | --- |
| COc1cccc(/C=N/NC(=O)c2ccc3nc[nH]c3c2)c1 | > 44.1 µg/mL |
| c1ccc2c(c1)OCC(CNCC1COc3ccccc3O1)O2 (stereo not given) | > 47 µg/mL |
| CSCCC(NC(=O)c1ccco1)C(=O)NNC(=O)c1n[nH]c(=O)c2ccccc12 (stereo not given) | > 64.4 µg/mL |
| COc1ccc(C(=O)Nc2nc(C)cc(C)n2)cc1 | > 38.6 µg/mL |
| CCOc1ccc(N2CC(C(=O)NC3=NCCS3)CC2=O)cc1 (stereo not given) | > 50 µg/mL |
| CCN(c1ccc(NC(=O)COC(=O)/C=C/c2ccco2)cc1)C(C)C | 24.5 µg/mL (≈ 68.7 µM) |
| CCOC(=O)c1c(-c2ccc(F)cc2)csc1/N=C/N(C)C | > 48.1 µg/mL |
| O=C(NCCN1CCOCC1)Nc1ccc(F)cc1 | > 40.1 µg/mL |
| Cc1cc(=O)[nH]c(NCc2ccccc2)n1 | 30.6 µg/mL (≈ 142 µM) |
| CN(c1ncnc(N)c1[N+](=O)[O-])C1CCCCC1 | > 37.7 µg/mL |
| Cc1cc(N2CCOCC2)nc(SCC(=O)OCc2ccccc2)n1 | > 53.9 µg/mL |
| O=C(OCCCOC(=O)c1cc[n+]([O-])cc1)c1cc[n+]([O-])cc1 | > 47.7 µg/mL |
| O=C(NCc1ccc2c(c1)OCO2)NC12CC3CC(CC(C3)C1)C2 | 1.3 µg/mL (≈ 3.96 µM) |
| Cc1ccc(S(=O)(=O)N2CCN(c3ccccc3)CC2)cc1C | < 0.4 µg/mL |
| O=c1ccc(-c2ccccc2)no1 | > 26 µg/mL |
| Cn1c(=O)[nH]c(NCCc2ccc(O)cc2)c([N+](=O)[O-])c1=O | > 45.9 µg/mL |
| CC(C(=O)NCC1CCCCC1)N(C)Cc1cccc(Cl)c1 (stereo not given) | 22.8 µg/mL (≈ 70.6 µM) |
| O=c1cc(C(F)(F)F)[nH]c2ccc(C(F)(F)F)cc12 | > 42.2 µg/mL |
| O=C(/C=C/c1ccc2c(c1)OCO2)NC1CCCC1 | 31.4 µg/mL (≈ 121 µM) |
| CC1CC(C)CN(c2ccc(NS(=O)(=O)c3ccccc3)cc2C(=O)O)C1 (stereo not given) | 57.2 µg/mL (≈ 147 µM) |

| Compound | solubility kinetic |
| --- | --- |
| Cc1nc(NC(=S)NC(=O)c2ccco2)sc1C(=O)N(C)C | > 50.8 µg/mL |
| O=C(CN1CCCC1)Nc1ccc(Cl)cc1C(F)(F)F | 22.3 µg/mL (≈ 72.7 µM) |
| NC(=O)c1ccccc1NC(=O)CC12CC3CC(CC(C3)C1)C2 | 4.1 µg/mL (≈ 13.1 µM) |
| N#Cc1c(N2CCCC2)nsc1-c1ccccc1 | 0.4 µg/mL (≈ 1.57 µM) |
| CC(c1ccccc1)N1CC(C(=O)O)CC1=O (stereo not given) | > 35 µg/mL |
| O=C(CCCc1c[nH]c2ccccc12)NCc1ccccc1F | 34.5 µg/mL (≈ 111 µM) |
| Cc1ccc(CNC(=O)c2ccc(C)s2)cc1 | 19.2 µg/mL (≈ 78.3 µM) |
| COc1cc2c(cc1OC)-c1cc(Nc3ccc(C)cc3)nc(=O)n1CC2 | 1.9 µg/mL (≈ 5.23 µM) |
| O=C(Nc1ccncc1)Nc1ccc(F)cc1 | 29.9 µg/mL (≈ 129 µM) |
| CC(=O)Oc1cc(C(=O)OCC(=O)N2CCc3ccccc3C2)cc(OC(C)=O)c1OC(C)=O | > 70.4 µg/mL |
| C=CCc1cccc(CNc2c(C)cc(C)cc2C)c1O | 4.7 µg/mL (≈ 16.7 µM) |
| COc1ccc(COC(=O)CN2C(=O)NC3(CC(C)CC(C)(C)C3)C2=O)cc1F (stereo not given) | 5.1 µg/mL (≈ 12.5 µM) |
| O=C(/C=C/c1ccccc1[N+](=O)[O-])NCc1ccccc1Cl | 1.5 µg/mL (≈ 4.74 µM) |
| Cc1cccc(NC(=O)NC2(C)CCS(=O)(=O)C2)c1 (stereo not given) | > 42.4 µg/mL |
| Cc1oc(C(C)(C)C)cc1C(=O)NCc1ccc2c(c1)OCO2 | < 0.7 µg/mL |
| O=C(Nc1cc2c3c(c1)CC(=O)N3CCC2)c1cccc(F)c1 | 10.5 µg/mL (≈ 33.8 µM) |
| Cc1ccc(CN2CCN(Cc3ccncc3)CC2CCO)o1 (stereo not given) | 34.3 µg/mL (≈ 109 µM) |
| O=C(NCC(O)c1ccc([N+](=O)[O-])cc1)C1CCCCC1 (stereo not given) | 28.4 µg/mL (≈ 97.1 µM) |
| CC(NC(=O)c1ccco1)c1nc(-c2ccc(C(C)(C)C)cc2)no1 (stereo not given) | 0.9 µg/mL (≈ 2.65 µM) |
| Cc1ccc(C(=O)N2CCCC(Nc3ccc(F)c(F)c3)C2)cn1 (stereo not given) | > 49.7 µg/mL |
